Results taken from ChEMBL document CHEMBL4507289, “Data for DCP probe GSM1” (2021).

Tests used:
[1] = target: Insulin receptor (Homo sapiens) (UniProt P06213); details: Compound concentration 1000.0 nM
[2] = target: Cyclin-dependent kinase 11A (Homo sapiens) (UniProt Q9UQ88); details: Compound concentration 1000.0 nM
[3] = target: NUAK family SNF1-like kinase 2 (Homo sapiens) (UniProt Q9H093); details: Compound concentration 1000.0 nM
[4] = test system: eIF-2-alpha kinase GCN2 (Homo sapiens), Q9P2K8 [S808G]; details: Compound concentration 1000.0 nM
[5] = target: Serine/threonine-protein kinase 38-like (Homo sapiens) (UniProt Q9Y2H1); details: Compound concentration 1000.0 nM
[6] = species: Rattus norvegicus; details: Compound concentration 10.0 uM
[7] = test system: Receptor-type tyrosine-protein kinase FLT3 (Homo sapiens), P36888 [D835V]; details: Compound concentration 1000.0 nM
[8] = target: Serine/threonine-protein kinase RIO2 (Homo sapiens) (UniProt Q9BVS4); details: Compound concentration 1000.0 nM
[9] = target: Tyrosine-protein kinase Tec (Homo sapiens) (UniProt P42680); details: Compound concentration 1000.0 nM
[10] = target: Interferon-induced, double-stranded RNA-activated protein kinase (Homo sapiens) (UniProt P19525); details: Compound concentration 1000.0 nM
[11] = target: Sigma non-opioid intracellular receptor 1 (Homo sapiens) (UniProt Q99720); details: Compound concentration 10.0 uM
[12] = target: Cyclin-dependent kinase-like 1 (Homo sapiens) (UniProt Q00532); details: Compound concentration 1000.0 nM
[13] = target: cAMP-dependent protein kinase catalytic subunit beta (Homo sapiens) (UniProt P22694); details: Compound concentration 1000.0 nM
[14] = target: Ribosomal protein S6 kinase alpha-3 (Homo sapiens) (UniProt P51812); details: Compound concentration 1000.0 nM
[15] = target: Mitogen-activated protein kinase kinase kinase 6 (Homo sapiens) (UniProt O95382); details: Compound concentration 1000.0 nM
[16] = target: Serine/threonine-protein kinase NLK (Homo sapiens) (UniProt Q9UBE8); details: Compound concentration 1000.0 nM
[17] = target: Serine/threonine-protein kinase 36 (Homo sapiens) (UniProt Q9NRP7); details: Compound concentration 1000.0 nM
[18] = test system: Mast/stem cell growth factor receptor Kit (Homo sapiens), P10721 [D816V]; details: Compound concentration 1000.0 nM
[19] = target: Mitogen-activated protein kinase kinase kinase 9 (Homo sapiens) (UniProt P80192); details: Compound concentration 1000.0 nM
[20] = target: ALK tyrosine kinase receptor (Homo sapiens) (UniProt Q9UM73); details: Compound concentration 1000.0 nM
[21] = test system: Phosphatidylinositol 4,5-bisphosphate 3-kinase catalytic subunit alpha isoform (Homo sapiens), P42336 [H1047L]; details: Compound concentration 1000.0 nM
[22] = target: Ephrin type-B receptor 4 (Homo sapiens) (UniProt P54760); details: Compound concentration 1000.0 nM
[23] = test system: Phosphatidylinositol 4,5-bisphosphate 3-kinase catalytic subunit alpha isoform (Homo sapiens), P42336 [M1043I]; details: Compound concentration 1000.0 nM
[24] = target: Inhibitor of nuclear factor kappa-B kinase subunit alpha (Homo sapiens) (UniProt O15111); details: Compound concentration 1000.0 nM
[25] = target: Mitogen-activated protein kinase 12 (Homo sapiens) (UniProt P53778); details: Compound concentration 1000.0 nM
[26] = target: Mitogen-activated protein kinase kinase kinase 7 (Homo sapiens) (UniProt O43318); details: Compound concentration 1000.0 nM
[27] = target: Mitogen-activated protein kinase 9 (Homo sapiens) (UniProt P45984); details: Compound concentration 1000.0 nM
[28] = target: Casein kinase I isoform gamma-3 (Homo sapiens) (UniProt Q9Y6M4); details: Compound concentration 1000.0 nM
[29] = test system: Epidermal growth factor receptor (Homo sapiens), P00533 [G719S]; details: Compound concentration 1000.0 nM
[30] = target: Histamine H1 receptor (Homo sapiens) (UniProt P35367); details: Compound concentration 10.0 uM
[31] = target: Activin receptor type-2B (Homo sapiens) (UniProt Q13705); details: Compound concentration 1000.0 nM
[32] = target: G protein-coupled receptor kinase 4 (Homo sapiens) (UniProt P32298); details: Compound concentration 1000.0 nM
[33] = target: Ribosomal protein S6 kinase alpha-3 (Homo sapiens) (UniProt P51812); details: Compound concentration 1000.0 nM; remark: listed apart in the source
[34] = target: Serine/threonine-protein kinase/endoribonuclease IRE1 (Homo sapiens) (UniProt O75460); details: Compound concentration 1000.0 nM
[35] = target: RAC-beta serine/threonine-protein kinase (Homo sapiens) (UniProt P31751); details: Compound concentration 1000.0 nM
[36] = target: Ribosomal protein S6 kinase alpha-5 (Homo sapiens) (UniProt O75582); details: Compound concentration 1000.0 nM
[37] = test system: Mast/stem cell growth factor receptor Kit (Homo sapiens), P10721 [D816H]; details: Compound concentration 1000.0 nM
[38] = target: Serine/threonine-protein kinase TAO1 (Homo sapiens) (UniProt Q7L7X3); details: Compound concentration 1000.0 nM
[39] = target: Tyrosine-protein kinase Fer (Homo sapiens) (UniProt P16591); details: Compound concentration 1000.0 nM
[40] = target: Epithelial discoidin domain-containing receptor 1 (Homo sapiens) (UniProt Q08345); details: Compound concentration 1000.0 nM
[41] = target: Cyclin-dependent kinase 3 (Homo sapiens) (UniProt Q00526); details: Compound concentration 1000.0 nM
[42] = target: Ephrin type-A receptor 2 (Homo sapiens) (UniProt P29317); details: Compound concentration 1000.0 nM
[43] = target: Serine/threonine-protein kinase PRP4 homolog (Homo sapiens) (UniProt Q13523); details: Compound concentration 1000.0 nM
[44] = target: MAP/microtubule affinity-regulating kinase 4 (Homo sapiens) (UniProt Q96L34); details: Compound concentration 1000.0 nM
[45] = target: Cyclin-dependent kinase 17 (Homo sapiens) (UniProt Q00537); details: Compound concentration 1000.0 nM
Cyclin-dependent kinase 17 (Homo sapiens), sequence (Q00537 whole entry, looked up): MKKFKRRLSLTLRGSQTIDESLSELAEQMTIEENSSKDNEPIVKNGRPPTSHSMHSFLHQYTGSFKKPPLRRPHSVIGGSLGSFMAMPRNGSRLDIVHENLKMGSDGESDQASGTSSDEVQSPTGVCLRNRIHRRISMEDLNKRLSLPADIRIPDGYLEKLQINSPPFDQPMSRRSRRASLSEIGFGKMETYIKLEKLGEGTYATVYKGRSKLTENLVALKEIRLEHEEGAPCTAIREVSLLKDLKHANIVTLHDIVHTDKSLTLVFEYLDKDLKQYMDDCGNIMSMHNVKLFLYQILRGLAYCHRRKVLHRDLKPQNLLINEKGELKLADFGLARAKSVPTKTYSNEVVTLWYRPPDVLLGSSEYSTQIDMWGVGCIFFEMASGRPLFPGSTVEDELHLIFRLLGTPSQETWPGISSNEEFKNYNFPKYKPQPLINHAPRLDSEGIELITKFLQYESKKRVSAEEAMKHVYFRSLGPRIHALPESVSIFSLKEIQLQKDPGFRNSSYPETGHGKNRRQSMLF

Ribosomal protein S6 kinase alpha-3 (Homo sapiens), sequence (P51812 whole entry): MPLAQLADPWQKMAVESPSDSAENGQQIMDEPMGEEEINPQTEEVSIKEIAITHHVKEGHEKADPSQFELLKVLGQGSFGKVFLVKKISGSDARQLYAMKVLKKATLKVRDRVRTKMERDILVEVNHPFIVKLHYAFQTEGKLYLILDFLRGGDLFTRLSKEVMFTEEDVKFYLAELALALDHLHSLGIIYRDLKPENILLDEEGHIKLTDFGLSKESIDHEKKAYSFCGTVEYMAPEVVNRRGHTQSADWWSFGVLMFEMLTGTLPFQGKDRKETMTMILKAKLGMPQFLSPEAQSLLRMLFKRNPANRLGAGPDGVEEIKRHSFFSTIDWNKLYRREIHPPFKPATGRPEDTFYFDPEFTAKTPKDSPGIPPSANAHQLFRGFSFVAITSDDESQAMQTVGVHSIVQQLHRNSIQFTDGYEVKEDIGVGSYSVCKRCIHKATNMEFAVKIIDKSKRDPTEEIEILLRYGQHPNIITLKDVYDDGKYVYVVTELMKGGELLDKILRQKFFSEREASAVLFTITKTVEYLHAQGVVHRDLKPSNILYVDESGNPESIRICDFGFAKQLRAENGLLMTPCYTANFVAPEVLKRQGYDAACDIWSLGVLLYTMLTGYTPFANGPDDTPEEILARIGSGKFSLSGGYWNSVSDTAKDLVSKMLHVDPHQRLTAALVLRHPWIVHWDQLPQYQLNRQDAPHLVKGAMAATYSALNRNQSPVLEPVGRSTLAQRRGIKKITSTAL
Sigma non-opioid intracellular receptor 1 (Homo sapiens), sequence (Q99720 whole entry): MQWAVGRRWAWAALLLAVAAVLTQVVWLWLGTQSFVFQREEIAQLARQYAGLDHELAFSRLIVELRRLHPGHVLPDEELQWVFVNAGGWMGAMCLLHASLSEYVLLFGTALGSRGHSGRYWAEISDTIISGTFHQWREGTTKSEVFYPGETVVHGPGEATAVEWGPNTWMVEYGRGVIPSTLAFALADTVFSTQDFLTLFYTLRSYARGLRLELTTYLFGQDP
Phosphatidylinositol 4,5-bisphosphate 3-kinase catalytic subunit alpha isoform (Homo sapiens), P42336 [H1047L], sequence (P42336 whole entry H1047L, canonical isoform): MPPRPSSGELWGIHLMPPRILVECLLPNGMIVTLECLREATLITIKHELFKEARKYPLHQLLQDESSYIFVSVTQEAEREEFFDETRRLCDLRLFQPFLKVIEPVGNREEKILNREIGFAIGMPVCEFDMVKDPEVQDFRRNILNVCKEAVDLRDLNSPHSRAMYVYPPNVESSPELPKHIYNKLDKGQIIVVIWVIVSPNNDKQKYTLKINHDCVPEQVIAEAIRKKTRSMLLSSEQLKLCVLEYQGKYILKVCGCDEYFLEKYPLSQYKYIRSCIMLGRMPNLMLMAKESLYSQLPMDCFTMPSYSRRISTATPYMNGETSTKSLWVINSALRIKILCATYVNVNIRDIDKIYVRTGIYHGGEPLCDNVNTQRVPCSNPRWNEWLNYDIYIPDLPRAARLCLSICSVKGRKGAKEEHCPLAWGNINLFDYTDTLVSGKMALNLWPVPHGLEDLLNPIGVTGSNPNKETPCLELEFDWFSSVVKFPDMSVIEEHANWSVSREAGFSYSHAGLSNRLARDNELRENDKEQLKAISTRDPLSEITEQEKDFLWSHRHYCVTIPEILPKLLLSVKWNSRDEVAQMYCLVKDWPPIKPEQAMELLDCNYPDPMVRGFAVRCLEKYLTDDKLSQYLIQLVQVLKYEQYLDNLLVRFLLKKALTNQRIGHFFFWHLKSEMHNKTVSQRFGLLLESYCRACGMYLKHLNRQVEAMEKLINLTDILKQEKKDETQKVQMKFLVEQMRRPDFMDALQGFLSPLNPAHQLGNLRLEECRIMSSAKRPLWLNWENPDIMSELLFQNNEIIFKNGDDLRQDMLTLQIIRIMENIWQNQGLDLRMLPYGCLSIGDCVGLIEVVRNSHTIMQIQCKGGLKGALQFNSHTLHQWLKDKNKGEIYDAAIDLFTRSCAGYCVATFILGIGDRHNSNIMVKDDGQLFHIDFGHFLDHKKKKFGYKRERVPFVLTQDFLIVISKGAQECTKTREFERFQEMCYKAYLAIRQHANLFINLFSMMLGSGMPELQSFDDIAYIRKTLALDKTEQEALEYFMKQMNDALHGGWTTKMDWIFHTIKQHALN
Cyclin-dependent kinase 3 (Homo sapiens), sequence (Q00526 whole entry, looked up): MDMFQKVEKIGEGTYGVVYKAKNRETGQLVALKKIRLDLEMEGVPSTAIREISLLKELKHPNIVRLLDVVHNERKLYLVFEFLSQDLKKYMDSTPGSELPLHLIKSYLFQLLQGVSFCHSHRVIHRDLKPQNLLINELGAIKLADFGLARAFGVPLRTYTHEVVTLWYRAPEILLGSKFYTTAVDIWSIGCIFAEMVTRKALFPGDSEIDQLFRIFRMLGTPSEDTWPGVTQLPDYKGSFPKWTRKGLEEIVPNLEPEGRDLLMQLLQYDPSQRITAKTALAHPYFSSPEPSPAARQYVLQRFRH
Insulin receptor (Homo sapiens), sequence (P06213 28-758 limits assumed): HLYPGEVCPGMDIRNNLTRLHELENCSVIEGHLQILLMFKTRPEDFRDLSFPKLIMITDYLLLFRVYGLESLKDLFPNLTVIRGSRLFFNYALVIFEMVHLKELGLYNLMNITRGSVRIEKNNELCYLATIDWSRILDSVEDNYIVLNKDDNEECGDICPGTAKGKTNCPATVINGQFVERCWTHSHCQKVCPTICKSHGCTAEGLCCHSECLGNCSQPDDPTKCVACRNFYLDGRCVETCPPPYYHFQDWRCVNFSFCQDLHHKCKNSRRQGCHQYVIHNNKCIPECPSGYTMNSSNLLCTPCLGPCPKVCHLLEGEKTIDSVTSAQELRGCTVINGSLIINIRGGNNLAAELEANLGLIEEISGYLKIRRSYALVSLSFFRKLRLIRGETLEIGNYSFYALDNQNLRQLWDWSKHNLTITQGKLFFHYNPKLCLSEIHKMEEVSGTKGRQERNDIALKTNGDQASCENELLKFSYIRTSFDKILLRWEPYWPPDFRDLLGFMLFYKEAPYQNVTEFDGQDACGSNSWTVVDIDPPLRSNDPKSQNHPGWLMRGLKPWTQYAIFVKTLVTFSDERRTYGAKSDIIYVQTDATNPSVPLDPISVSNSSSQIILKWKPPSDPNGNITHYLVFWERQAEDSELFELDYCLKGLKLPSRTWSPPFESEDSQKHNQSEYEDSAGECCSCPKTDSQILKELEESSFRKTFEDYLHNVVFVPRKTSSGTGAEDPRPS
Insulin receptor (Homo sapiens), sequence (P06213 763-1382 limits assumed): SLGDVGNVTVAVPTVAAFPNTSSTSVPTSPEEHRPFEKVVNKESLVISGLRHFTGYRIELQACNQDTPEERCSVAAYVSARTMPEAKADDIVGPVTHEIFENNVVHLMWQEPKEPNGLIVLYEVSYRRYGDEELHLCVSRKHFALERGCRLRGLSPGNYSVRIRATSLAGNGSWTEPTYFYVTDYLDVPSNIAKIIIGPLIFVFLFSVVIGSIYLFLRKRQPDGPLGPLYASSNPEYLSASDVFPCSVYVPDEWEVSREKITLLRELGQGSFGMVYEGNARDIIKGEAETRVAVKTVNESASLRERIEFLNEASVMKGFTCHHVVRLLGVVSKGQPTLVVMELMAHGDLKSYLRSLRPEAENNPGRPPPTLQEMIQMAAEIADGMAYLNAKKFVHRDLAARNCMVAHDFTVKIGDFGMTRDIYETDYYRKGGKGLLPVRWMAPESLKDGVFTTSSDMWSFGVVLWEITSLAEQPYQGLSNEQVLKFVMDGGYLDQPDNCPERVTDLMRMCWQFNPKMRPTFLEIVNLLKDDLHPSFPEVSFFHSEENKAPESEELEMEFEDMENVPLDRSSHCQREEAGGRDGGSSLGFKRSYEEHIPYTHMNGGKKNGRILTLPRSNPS
Mitogen-activated protein kinase 12 (Homo sapiens), sequence (P53778 whole entry): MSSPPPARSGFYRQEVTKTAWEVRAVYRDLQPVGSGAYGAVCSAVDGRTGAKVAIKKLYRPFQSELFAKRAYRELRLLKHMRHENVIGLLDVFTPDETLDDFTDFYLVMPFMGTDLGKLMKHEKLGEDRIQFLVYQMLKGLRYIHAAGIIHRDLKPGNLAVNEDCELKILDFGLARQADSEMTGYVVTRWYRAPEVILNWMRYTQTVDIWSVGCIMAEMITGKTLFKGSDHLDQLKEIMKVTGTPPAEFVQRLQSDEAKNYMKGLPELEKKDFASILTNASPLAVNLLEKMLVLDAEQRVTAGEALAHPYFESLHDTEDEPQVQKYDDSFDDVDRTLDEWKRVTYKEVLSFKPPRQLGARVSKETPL
Casein kinase I isoform gamma-3 (Homo sapiens), sequence (Q9Y6M4 whole entry, looked up, canonical isoform): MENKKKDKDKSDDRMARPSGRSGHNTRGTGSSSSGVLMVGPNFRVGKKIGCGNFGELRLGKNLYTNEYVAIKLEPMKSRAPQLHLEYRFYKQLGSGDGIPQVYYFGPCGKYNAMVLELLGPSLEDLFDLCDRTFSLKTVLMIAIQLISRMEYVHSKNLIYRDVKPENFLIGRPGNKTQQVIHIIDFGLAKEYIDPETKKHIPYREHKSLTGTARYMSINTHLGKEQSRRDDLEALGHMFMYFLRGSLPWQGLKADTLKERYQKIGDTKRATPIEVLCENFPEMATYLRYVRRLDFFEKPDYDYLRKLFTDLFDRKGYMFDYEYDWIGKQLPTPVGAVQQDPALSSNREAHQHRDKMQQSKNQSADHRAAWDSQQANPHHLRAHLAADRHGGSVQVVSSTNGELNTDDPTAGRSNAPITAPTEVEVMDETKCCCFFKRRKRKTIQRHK

Compound: COc1cc(-c2cn([C@H]3CCc4c(F)cccc4N(CC(F)(F)F)C3=O)nn2)ccc1-n1cnc(C)c1
- residual activity [1]: 90%
- residual activity [2]: 100%
- residual activity [3]: 100%
- residual activity [4]: 100%
- residual activity [5]: 78%
- inhibition [6]: 8.82%
- residual activity [7]: 97%
- residual activity [8]: 100%
- residual activity [9]: 100%
- residual activity [10]: 100%
- inhibition [11]: 26.6%
- residual activity [12]: 100%
- residual activity [13]: 95%
- residual activity [14]: 100%
- residual activity [15]: 98%
- residual activity [16]: 100%
- residual activity [17]: 100%
- residual activity [18]: 100%
- residual activity [19]: 100%
- residual activity [20]: 100%
- residual activity [21]: 96%
- residual activity [22]: 100%
- residual activity [23]: 100%
- residual activity [24]: 100%
- residual activity [25]: 79%
- residual activity [26]: 100%
- residual activity [27]: 92%
- residual activity [28]: 86%
- residual activity [29]: 90%
- inhibition [30]: 7.55%
- residual activity [31]: 100%
- residual activity [32]: 100%
- residual activity [33]: 100%
- residual activity [34]: 100%
- residual activity [35]: 93%
- residual activity [36]: 100%
- residual activity [37]: 67%
- residual activity [38]: 100%
- residual activity [39]: 100%
- residual activity [40]: 100%
- residual activity [41]: 100%
- residual activity [42]: 100%
- residual activity [43]: 100%
- residual activity [44]: 100%
- residual activity [45]: 84%

Compound: COc1cc(-c2cn([C@H]3CCc4ccccc4N(CC(F)(F)F)C3=O)nn2)ccc1-n1ccc(C)n1
- residual activity [1]: 69%
- residual activity [2]: 97%
- residual activity [3]: 88%
- residual activity [4]: 100%
- residual activity [5]: 75%
- inhibition [6]: 59.5%
- residual activity [7]: 80%
- residual activity [8]: 96%
- residual activity [9]: 100%
- residual activity [10]: 87%
- inhibition [11]: 23.2%
- residual activity [12]: 97%
- residual activity [13]: 81%
- residual activity [14]: 100%
- residual activity [15]: 53%
- residual activity [16]: 100%
- residual activity [17]: 79%
- residual activity [18]: 100%
- residual activity [19]: 91%
- residual activity [20]: 92%
- residual activity [21]: 97%
- residual activity [22]: 92%
- residual activity [23]: 100%
- residual activity [24]: 98%
- residual activity [25]: 100%
- residual activity [26]: 86%
- residual activity [27]: 64%
- residual activity [28]: 86%
- residual activity [29]: 100%
- inhibition [30]: 9.72%
- residual activity [31]: 100%
- residual activity [32]: 100%
- residual activity [33]: 97%
- residual activity [34]: 86%
- residual activity [35]: 93%
- residual activity [36]: 74%
- residual activity [37]: 75%
- residual activity [38]: 92%
- residual activity [39]: 100%
- residual activity [40]: 100%
- residual activity [41]: 100%
- residual activity [42]: 100%
- residual activity [43]: 93%
- residual activity [44]: 100%
- residual activity [45]: 100%
